Experimental data: patent US8999981B2, “3-amido-pyrrolo[3,4-C]pyrazole-5(1H, 4H,6H) carbaldehyde derivatives” (Pfizer Inc., priority 2007, dated 2015)

These compounds were tested against Protein Kinase C beta 2 (PKCβII) (Homo sapiens (Human), UniProt P05771) (assay: PKCβII coupled PK/LDH spectrophotometric kinase assay). Conditions: apparent Ki, ATP-competitive model (Morrison equation); 0.1 mM ATP, 30° C.; read-out: PKCb Ki.
Type: biochemical
Procedure: This transfer is coupled to the oxidation of β-NADH through the activities of Pyruvate Kinase (PK) and Lactate Dehydrogenase (LDH). β-NADH conversion to NAD+ is monitored by the decrease in absorbance at 340 nm (e=6.22 cm^−1 mM^−1) using a Molecular Devices SPECTRA max PLUS spectrophotometer.
A typical assay was carried out on a 96-well, clear microtiter plate in a Molecular Devices spectrophotometer for 20 minutes at 30° C. in 0.1 mL of assay buffer containing 50 mM HEPES, pH 7.4, 5 nM PKC, 23 units of pyruvate kinase, 33 units of lactate dehydrogenase, 0.15 mM peptide, 0.1 mM ATP, 1 mM DTT, 4 mM PEP, 8 mM MgCl2, 0.3 mM NADH, 60 mM CaCl2, 10 mg/mL PS, 50 ng/mL PMA, 7.5% DMSO and from about 10,000 nM to 0.169 nM compound inhibitor. Stock solutions of 3-sn-phosphatidyl-L-serine (PS) and phorbol-12-myristate-13-acetate (PMA) were sonicated for 30 seconds just prior to addition to assay buffer and assays were initiated by the addition of 100 μM ATP.
Enzyme turnover values (kcat) were calculated according to […], where [E] is the total enzyme concentration. Enzyme inhibition constants (apparent K values) were determined by fitting initial velocities at variable inhibitor concentrations to a model for ATP competitive inhibition based on the Morrison equation). Morrison, J. F., Biochim. Biophys Acta 185: 269-286 (1969).

Protein Kinase C beta 2 (PKCβII), sequence (P05771 other isoform, or with tags, fused parts or gaps): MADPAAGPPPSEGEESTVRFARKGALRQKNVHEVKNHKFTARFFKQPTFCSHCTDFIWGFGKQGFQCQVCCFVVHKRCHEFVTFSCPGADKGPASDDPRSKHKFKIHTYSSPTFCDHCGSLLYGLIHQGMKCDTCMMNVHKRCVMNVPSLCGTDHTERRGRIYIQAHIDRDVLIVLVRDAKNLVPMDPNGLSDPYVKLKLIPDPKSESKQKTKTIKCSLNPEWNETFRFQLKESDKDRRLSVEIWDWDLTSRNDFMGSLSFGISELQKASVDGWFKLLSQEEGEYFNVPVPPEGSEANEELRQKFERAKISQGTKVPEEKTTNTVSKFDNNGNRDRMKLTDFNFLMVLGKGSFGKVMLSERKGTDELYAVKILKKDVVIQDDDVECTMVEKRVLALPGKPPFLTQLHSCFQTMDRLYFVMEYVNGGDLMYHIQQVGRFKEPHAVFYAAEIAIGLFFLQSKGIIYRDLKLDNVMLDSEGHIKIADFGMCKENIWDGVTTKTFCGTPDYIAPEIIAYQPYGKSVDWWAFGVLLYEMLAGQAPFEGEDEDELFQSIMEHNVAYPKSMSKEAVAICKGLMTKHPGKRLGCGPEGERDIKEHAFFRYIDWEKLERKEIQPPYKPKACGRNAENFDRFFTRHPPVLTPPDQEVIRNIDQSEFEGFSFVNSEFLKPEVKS

Row | Compound | Ki
1 | CC1(C)c2[nH]nc(NC(=O)c3ccc4ccncc4n3)c2CN1C(=O)N1C[C@@H]2CCCN2C[C@@H]1Cc1ccccc1 [Example A25] | 28.8 nM
2 | CC[C@H]1CN2CCC[C@@H]2CN1C(=O)N1Cc2c(CC(=O)c3ccccn3)n[nH]c2C1(C)C [Example A90] | 107 nM
3 | CCN1CCN(C(=O)N2Cc3c(NC(=O)c4ccccn4)n[nH]c3C2(C)C)CC1C (stereo not shown) [Example A128] | 156 nM
4 | Cc1cc(C(=O)Nc2n[nH]c3c2CN(C(=O)N2C[C@@H](C)N(CC4CCOCC4)C[C@@H]2C)C3(C)C)n(C)n1 [Example F12] | 33 nM
5 | C[C@H]1CN2CCC[C@H]2CN1C(=O)N1Cc2c(NC(=O)c3ccc4ccccc4n3)n[nH]c2C1(C)C [Example A88] | 17.8 nM
6 | C[C@H]1CN2CCC[C@H]2CN1C(=O)N1Cc2c(NC(=O)c3ccccc3)n[nH]c2C1(C)C [Example A27] | 35.1 nM
7 | Cc1cccc(C(=O)Nc2n[nH]c3c2CN(C(=O)N2C[C@@H]4CCCN4C[C@@H]2C)C3(C)C)c1 [Example A65] | 54.5 nM
8 | CCC1(C)c2[nH]nc(NC(=O)c3ncc(F)cc3F)c2CN1C(=O)C1C[C@@H]2CCCN2C[C@@H]1C (stereo partly shown) [Example A86] | 74.1 nM
9 | CC1(C)c2[nH]nc(NC(=O)c3ccccc3)c2CN1C(=O)N1CCN2CCCC2C1 (stereo not shown) [Example A16] | 113 nM
10 | C[C@H]1CN2CCC[C@H]2CN1C(=O)N1Cc2c(NC(=O)c3cccc(OC(F)(F)F)c3)n[nH]c2C1(C)C [Example A45] | 104 nM
11 | CN1CCN(C(=O)N2Cc3c(NC(=O)c4cc5ccccc5o4)n[nH]c3C2(C)C)[C@@H](Cc2ccccc2)C1 [Example A7] | 124 nM
12 | C[C@H]1CN2CCC[C@H]2CN1C(=O)N1Cc2c(NC(=O)c3cc4cccn4cn3)n[nH]c2C1(C)C [Example A76] | 13.9 nM
13 | C[C@H]1CN2CCC[C@H]2CN1C(=O)N1Cc2c(NC(=O)c3nc(Cl)c(Cl)s3)n[nH]c2C1(C)C [Example A74] | 10.4 nM
14 | CC[C@H](C)[C@H]1CN2CCC[C@@H]2CN1C(=O)N1Cc2c(NC(=O)c3ccccn3)n[nH]c2C1(C)C [Example A80] | 129 nM
15 | C[C@H]1CN2CCC[C@H]2CN1C(=O)N1Cc2c(NC(=O)c3ccc(OC(F)(F)F)cc3)n[nH]c2C1(C)C [Example A41] | 45.4 nM
16 | Cc1cc(C(=O)Nc2n[nH]c3c2CN(C(=O)N2C[C@@H](C)N(CC4CCOCC4)C[C@@H]2C)C3(C)C)no1 [Example F13] | 41.1 nM
17 | Cc1cc(C(=O)Nc2n[nH]c3c2CN(C(=O)N2C[C@@H]4CCCN4C[C@@H]2C)C3(C)C)nc(C)n1 [Example A75] | 56.9 nM
18 | C[C@H]1CN2CCC[C@H]2CN1C(=O)N1Cc2c(NC(=O)c3ccc(F)c(Cl)c3)n[nH]c2C1(C)C [Example A34] | 21.9 nM
19 | C[C@H]1CN2CCC[C@H]2CN1C(=O)N1Cc2c(NC(=O)c3nc4ccccc4s3)n[nH]c2C1(C)C [Example A54] | 49.9 nM
20 | CCc1ccc(C(=O)Nc2n[nH]c3c2CN(C(=O)N2C[C@@H]4CCCN4C[C@@H]2C)C3(C)C)cc1 [Example A61] | 23.8 nM
21 | C[C@H]1CN2CCC[C@H]2CN1C(=O)N1Cc2c(NC(=O)c3ccc(C(F)(F)F)cn3)n[nH]c2C1(C)C [Example A130] | 31.5 nM
22 | C[C@H]1CN2CCC[C@H]2CN1C(=O)N1Cc2c(NC(=O)c3cccc(Cl)c3)n[nH]c2C1(C)C [Example A31] | 21.3 nM
23 | C[C@@H]1CN(C(=O)N2Cc3c(NC(=O)c4cn(C)cn4)n[nH]c3C2(C)C)[C@@H](C)CN1CC1CCOCC1 [Example E14] | 156 nM
24 | CC[C@H](C)[C@H]1CN2C[C@H](O)C[C@H]2CN1C(=O)N1Cc2c(NC(=O)c3ccccn3)n[nH]c2C1(C)C [Example A85] | 15.2 nM
25 | C[C@@H]1CN(C(=O)N2Cc3c(NC(=O)c4cc(C5CC5)n[nH]4)n[nH]c3C2(C)C)[C@@H](C)CN1CC1CCOCC1 [Example F17] | 19.4 nM
26 | CC1(C)c2[nH]nc(NC(=O)c3cccc(Cl)n3)c2CN1C(=O)N1CCN2CCCC2C1 (stereo not shown) [Example A24] | 42.9 nM

Next, values leading:

Row | Ki | Compound
27 | < 10 nM | C[C@@H]1CN(C(=O)N2Cc3c(NC(=O)c4ccc(Cl)cn4)n[nH]c3C2(C)C)[C@@H](C)CN1C1CCOCC1 [Example F56]
28 | 78.4 nM | COCCCN1C[C@H](C)N(C(=O)N2Cc3c(NC(=O)c4cc(C)nc(C)n4)n[nH]c3C2(C)C)C[C@H]1C [Example F2]
29 | 45.1 nM | Cc1ocnc1C(=O)Nc1n[nH]c2c1CN(C(=O)N1C[C@@H](C)N(C)C[C@@H]1C)C2(C)C [Example C4]
30 | 56.9 nM | COCCN1C[C@H](C)N(C(=O)N2Cc3c(NC(=O)c4ccc(F)cn4)n[nH]c3C2(C)C)C[C@H]1C [Example A164]
31 | 31.3 nM | Cc1nc(C(=O)Nc2n[nH]c3c2CN(C(=O)N2C[C@@H]4CCCN4C[C@@H]2C)C3(C)C)cs1 [Example E9]
32 | 50.3 nM | Cc1nc(C)c(C(=O)Nc2n[nH]c3c2CN(C(=O)N2C[C@@H](C)N(C)C[C@@H]2C)C3(C)C)o1 [Example C2]
33 | 6.81 nM | C[C@H]1CN2CCC[C@H]2CN1C(=O)N1Cc2c(NC(=O)c3cc(C4CC4)n[nH]3)n[nH]c2C1(C)C [Example E6]
34 | 22.2 nM | CCN1C[C@H](C)N(C(=O)N2Cc3c(NC(=O)c4ccc(F)cn4)n[nH]c3C2(C)C)C[C@@H]1C [Example A126]
35 | 13.9 nM | C[C@@H]1CN(C(=O)N2Cc3c(NC(=O)c4ccccn4)n[nH]c3C2(C)C)[C@@H](C)CN1C [Example A113]
36 | 108 nM | C[C@@H]1CN(C(=O)N2Cc3c(NC(=O)c4ccccn4)n[nH]c3C2(C)C)[C@@H](C)CN1CCOCCO [Example A156]
37 | 35.1 nM | Cc1nc(C(=O)Nc2n[nH]c3c2CN(C(=O)N2C[C@@H](C)N(C)C[C@@H]2C)C3(C)C)cs1 [Example C3]
38 | 152 nM | C[C@H]1CN(C)[C@@H](CCO)CN1C(=O)N1Cc2c(NC(=O)c3ccccn3)n[nH]c2C1(C)C [Example A151]
39 | 61.9 nM | CCC1(CC)c2[nH]nc(NC(=O)c3ccccn3)c2CN1C(=O)N1C[C@@H]2CCCN2C[C@@H]1C [Example A132]
40 | 135 nM | C[C@H]1CN2CCC[C@H]2CN1C(=O)N1Cc2c(NC(=O)c3c(F)ccc(F)c3F)n[nH]c2C1(C)C [Example E13]
41 | 87.1 nM | C[C@H]1CN(C)C(C)(C)CN1C(=O)N1Cc2c(NC(=O)c3ccc(F)cc3F)n[nH]c2C1(C)C [Example A114]
42 | < 10 nM | C[C@@H]1CN(C(=O)N2Cc3c(NC(=O)c4ccc(N5CCOCC5)cn4)n[nH]c3C2(C)C)[C@@H](C)CN1C1CCOCC1 [Example F52]
43 | 66.4 nM | CCc1ocnc1C(=O)Nc1n[nH]c2c1CN(C(=O)N1C[C@@H](C)N(C)C[C@@H]1C)C2(C)C [Example C7]
44 | 25.7 nM | CCc1nc(C)c(C(=O)Nc2n[nH]c3c2CN(C(=O)N2C[C@@H](C)N(C)C[C@@H]2C)C3(C)C)o1 [Example C6]
45 | 75.3 nM | CC1(C)c2n[nH]c(NC(=O)c3ccccn3)c2CN1C(=O)C1(F)CCN(C2CCC2)CC1 [Example B1, Pyridine-2-carboxylic acid [5-(1-cyclobutyl-4-fluoro-piperidine-4-carbonyl)-6,6-dimethyl-1,4,5,6-tetrahydro-pyrrolo[3,4-c]pyrazol-3-yl]-amide]
46 | 12.5 nM | C[C@H]1CN2CCC[C@H]2CN1C(=O)N1Cc2c(NC(=O)c3cnc4ccccc4n3)n[nH]c2C1(C)C [Example E7]
